Laboratory results from US20140357512A1, “HISTONE DEACETYLASE (HDAC) BIOMARKERS IN MULTIPLE MYELOMA” (priority 2013, published 2014).

Tested on: human myeloma cell line MM.1S
Assay: SILAC acetylated-lysine peptide profiling, HDAC inhibitor vs DMSO (light/heavy ratio)
Format: cell-based
Text: An embodiment of the invention comprises utilizing the SILAC method in order to quantitate changes in protein expression between two or more populations of cells. The SILAC method is a technique based on mass spectrometry that detects differences in protein abundance among samples using non-radioactive isotopic labeling. The SILAC method is known in the art, and described in detail in Ong et al., “Stable Isotope Labeling by Amino Acids in Cell Culture, SILAC, as a Simple and Accurate Approach to Expression Proteomics”, Molecular & Cellular Proteomics, vol. 1, pp. 376-386 (2002), which is incorporated herein by reference in its entirety.
Briefly, the SILAC method involves growing two populations of cells in cell culture. The first population of cells is grown in growth media containing normal amino acids (“normal media”). The second population of cells is grown in media lacking a standard essential amino acid (such as lysine), but is then supplemented with a non-radioactive, isotopically labeled form of that essential amino acid (such as lysine labeled with ^13C atoms, rather than normal ^12C atoms), which is called “heavy media”. When the two populations of cells are each growing in the medium, they incorporate the amino acids into all of their proteins. The growth of cells maintained in the heavy media is no different from that in normal media. All peptides containing the heavy amino acids are heavier than their normal counterparts. The cells from each of the two populations of cells are lysed. The lysates from each of the two cell populations are then combined. The combined cell lysates are then analyzed by mass spectrometry. Pairs of chemically identical peptides of different stable isotope composition can be differentiated in a mass spectrometer due to their difference in mass. The ratio of peak intensities in the mass spectrum for such peptide pairs reflects the abundance ratio for the two proteins.
This example describes SILAC studies that were performed to compare the effects of three different HDAC inhibitors (Compound A, Compound B, and tubastatin A) to a control on a human multiple myeloma cell line. The HDAC inhibitors were also compared amongst themselves to determine differences in their effects.
A human myeloma cell line MM.1S was grown using either ^12C (light) or ^13C (heavy) lysine containing culture medium. The “heavy” cells were treated with DMSO as the control, and the “light” cells were treated with a single HDAC inhibitor at 37° C. for 6 hours. The heavy and light cells were lysed, and the lysates were mixed in 1:1 ratio and digested with the protease trypsin. The acetylated lysine containing peptides (due to the action of the HDAC inhibitor) in the digested peptide pool were captured by a non-specific anti-acetylated lysine antibody cocktail (the antibodies identify both light and heavy acetylated peptides), and subjected to mass spectrometry analysis in order to identify thousands of individual peptides.
Thousands of peptides were identified in pairs (^12C and ^13C) due to their known mass differences. The amino acid sequence and quantitative ratio (Light/Heavy) of a given peptide in two differentially treated cell lysates were then determined and annotated with their possible protein (gene) sources.
As stated above, three HDAC inhibitors (Compound A, Compound B, and Tubastatin A) were used. Thus, the SILAC method was performed three times, with a different HDAC inhibitor compared to a control each time. Accordingly, there are three pairs of quantitative data in the table below, i.e., Compound A:DMSO, Compound B:DMSO, and Tubastatin A:DMSO. A cut-off of 1.30 fold of change (increase or decrease) was then used to determine “changed” or “+” in the table, and any peptides with a fold of change less than 1.3 fold were determined to be “unchanged” or “0” in the table. Those peptides that were not identified were marked as “NA” in the table. […]

O=C(NO)c1cnc(NC2(c3cccc(F)c3)CCCCC2)nc1 [Compound B, 2-((1-(3-fluorophenyl)cyclohexyl)amino)-N-hydroxypyrimidine-5-carboxamide]
light to heavy ratio (L/H ratio) of acetylated peptide TACAINK(ac)VLMGR (SEQ ID NO: 584) (Isoform 1 of Protein FAM98A [297], gene FAM98A, inhibitor:DMSO): 0.00 log 2 | light to heavy ratio (L/H ratio) of acetylated peptide VLSK(ac)[…] (SEQ ID NO: 294) (Isoform 1 of Protein SET [154], SET, drug:DMSO): 0.00 log 2 | light to heavy ratio (L/H ratio) of acetylated peptide […](ac)ALK (SEQ ID NO: 349) (Isoform 1 of RNA-binding protein with serine-rich domain 1 [218], RNPS1, drug:DMSO): −0.46 log 2 | light to heavy ratio (L/H ratio), log 2 scale, acetylated peptide […](ac)TDQAQDVK (SEQ ID NO: 765) (Isoform 1 of Signal recognition particle 9 kDa protein [52], gene SRP9, drug:DMSO): 0.00 | light to heavy ratio (L/H ratio) of acetylated peptide VLISFK(ac)ANDIEK (SEQ ID NO: 363) (Isoform 2 of Actin-related protein 2/3 complex subunit 5 [90], ARPC5, drug:DMSO): 0.42 log 2 | light to heavy ratio (L/H ratio) of acetylated peptide TMSCSDK(ac)ILR (SEQ ID NO: 323) (Isoform 2 of Double-stranded RNA-specific adenosine deaminase [1013], ADAR, drug:DMSO): −0.65 log 2 | light to heavy ratio (L/H ratio) of acetylated peptide […](ac)[…] (SEQ ID NO: 336) (Isoform 2 of Fibronectin type-III domain-containing protein 3A [507], FNDC3A, drug:DMSO): 0.40 log 2 | light to heavy ratio (L/H ratio) of acetylated peptide K(ac)[…] (SEQ ID NO: 369) (Isoform 2 of Huntingtin-interacting protein K [35], C15orf63, drug:DMSO): 1.00 log 2 | light to heavy ratio (L/H ratio) of acetylated peptide GAK(ac)PVVVLQK (SEQ ID NO: 611) (Isoform 2 of Nipped-B-like protein [1000], gene NIPBL, inhibitor:DMSO): 0.00 log 2 | light to heavy ratio (L/H ratio) of acetylated peptide LIAGNK(ac)[…] (SEQ ID NO: 512) (Isoform 2 of Nuclear factor related to kappa-B-binding protein [1262], gene NFRKB, inhibitor:DMSO): 0.00 log 2 | light to heavy ratio (L/H ratio) of acetylated peptide […](ac)K (SEQ ID NO: 626) (Isoform 2 of Septin-7 [207], gene, inhibitor:DMSO): 0.00 log 2 | light to heavy ratio (L/H ratio) of acetylated peptide YQQFK(ac)DFQR (SEQ ID NO: 258) (Isoform 2 of Spliceosome RNA helicase DDX39B [349], SNORD84, DDX39B, drug:DMSO): 0.00 log 2 | light to heavy ratio (L/H ratio) of acetylated peptide GLCEK(ac)PLASAAAK (SEQ ID NO: 536) (Isoform 2 of Transportin-3 [513], gene TNPO3, inhibitor:DMSO): 0.00 log 2 | light to heavy ratio (L/H ratio), log 2 scale, acetylated peptide LEPLK(ac)PLK (SEQ ID NO: 772) (Isoform 3 of Proline-rich protein 12 [1223], gene PRR12, drug:DMSO): 0.00 | light to heavy ratio (L/H ratio) of acetylated peptide […](ac)FLK (SEQ ID NO: 326) (Isoform 5 of Transcriptional regulator ATRX [812], ATRX, drug:DMSO): 0.89 log 2 | light to heavy ratio (L/H ratio), log 2 scale, acetylated peptide YNDPIYVK(ac)LEK (SEQ ID NO: 764) (Isoform A of AP-1 complex subunit beta-1 [335], gene AP1B1, drug:DMSO): 0.00 | light to heavy ratio (L/H ratio) of acetylated peptide MVAAAK(ac)YAR (SEQ ID NO: 324) (Isoform Heart of ATP synthase subunit gamma mitochondrial [55], ATP5C1, drug:DMSO): −0.80 log 2 | light to heavy ratio (L/H ratio) of acetylated peptide VPNDK(ac)YYGAQTVR (SEQ ID NO: 625) (Isoform Mitochondrial of Fumarate hydratase mitochondrial [66], gene FH, inhibitor:DMSO): 0.00 log 2 | light to heavy ratio (L/H ratio) of acetylated peptide MMVAGFK(ac)K (SEQ ID NO: 339) (Isoform Short of Heterogeneous nuclear ribonucleoprotein U [524], HNRNPU, drug:DMSO): −0.40 log 2 | light to heavy ratio (L/H ratio) of acetylated peptide APQCLGK(ac)FIEIAAR (SEQ ID NO: 338) (Isoform Short of Heterogeneous nuclear ribonucleoprotein U [546], HNRNPU, drug:DMSO): 0.75 log 2 | L/H ratio of acetylated peptide (K(ac)GPSVQKR (SEQ ID NO: 413), Isoform 1 of Protein lin-28 homolog B [240], LIN28B): 0.47 log 2 | light to heavy ratio (L/H ratio) of acetylated peptide, log 2 scale (K(ac)[…] (SEQ ID NO: 152), Eukaryotic translation initiation factor 5A-2 [68], EIF5A2): 0.00 | light to heavy ratio (L/H ratio) of acetylated peptide, log 2 scale (K(ac)[…] (SEQ ID NO: 164), Similar to nonhistone chromosomal protein HMG-1 [30], HMGB1P4): 0.00 | light to heavy ratio (L/H ratio) of acetylated peptide, log 2 scale (K(ac)[…] (SEQ ID NO: 246), Endoplasmin [270], HSP90B1): 0.00 | L/H ratio of acetylated peptide (K(ac)[…] (SEQ ID NO: 373), T-complex protein 1 subunit zeta [280], CCT6A): 0.67 log 2 | L/H ratio of acetylated peptide (KDFIK(ac)TTVK (SEQ ID NO: 388), Protein DEK [367], DEK): 0.38 log 2 | L/H ratio of acetylated peptide (KK(ac)FLCVTK (SEQ ID NO: 411), Kelch repeat and BTB domain-containing protein 8 [178], KBTBD8): 1.00 log 2 | light to heavy ratio (L/H ratio) of acetylated peptide, log 2 scale (KLPK(ac)[…] (SEQ ID NO: 198), Ras-related protein Rab-5C [184], RAB5C): 0.00 | L/H ratio of acetylated peptide (KPEENPASK(ac)FSSASK (SEQ ID NO: 391), Eukaryotic translation initiation factor 4B [586], EIF4B): 0.53 log 2 | L/H ratio of acetylated peptide (KSEDTISK(ac)MNDFMR (SEQ ID NO: 409), Isoform 1 of Gamma-interferon-inducible protein 16 [451], IFI16): −0.57 log 2 | light to heavy ratio (L/H ratio) of acetylated peptide, log 2 scale (KTPCGEGSK(ac)TWDR (SEQ ID NO: 245), 40S ribosomal protein S20 [75], SNORD54, RPS20): 0.00 | light to heavy ratio (L/H ratio) of acetylated peptide IVADK(ac)DYSVTANSK (SEQ ID NO: 317) (L-lactate dehydrogenase B chain [82], LDHB, drug:DMSO): 0.00 log 2 | L/H ratio of acetylated peptide (LCK(ac)YIYAK (SEQ ID NO: 390), Eukaryotic translation initiation factor 3 subunit C [553], EIF3C, EIF3CL): 0.45 log 2
